Test results from patent US7544773B2 (priority 2003, dated 2009).
No end group written: not given here.

Biological target: Caf1M-Caf1, Caf1M-(Caf1)2 and Caf1M-(Caf1)3 complexes (Yersinia pestis, UniProt P26948)
Sequence (P26948 22-170 limits assumed, one chain of several): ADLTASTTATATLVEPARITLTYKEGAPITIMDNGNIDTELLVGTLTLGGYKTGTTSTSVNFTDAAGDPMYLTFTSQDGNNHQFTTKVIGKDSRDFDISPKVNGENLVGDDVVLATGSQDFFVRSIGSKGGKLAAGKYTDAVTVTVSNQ

## ATATLV
  dissociation of the complexes to free Caf1M and Caf1: some dissociation
  formation of high molecular weight complexes (polymerization): polymerization was completely inhibited
